Measured values published in ChEMBL document CHEMBL1126838 (J Med Chem, 1993).

Target: Tyrosine-protein kinase Lck (Homo sapiens, UniProt P06239)
Assay: Tested in vitro for the inhibition of protein-tyrosine kinase p56lck using angiotensin I (1.2 mM) and [gamma-32P]-ATP (50 µM)

Sequence of Tyrosine-protein kinase Lck (P06239 whole entry): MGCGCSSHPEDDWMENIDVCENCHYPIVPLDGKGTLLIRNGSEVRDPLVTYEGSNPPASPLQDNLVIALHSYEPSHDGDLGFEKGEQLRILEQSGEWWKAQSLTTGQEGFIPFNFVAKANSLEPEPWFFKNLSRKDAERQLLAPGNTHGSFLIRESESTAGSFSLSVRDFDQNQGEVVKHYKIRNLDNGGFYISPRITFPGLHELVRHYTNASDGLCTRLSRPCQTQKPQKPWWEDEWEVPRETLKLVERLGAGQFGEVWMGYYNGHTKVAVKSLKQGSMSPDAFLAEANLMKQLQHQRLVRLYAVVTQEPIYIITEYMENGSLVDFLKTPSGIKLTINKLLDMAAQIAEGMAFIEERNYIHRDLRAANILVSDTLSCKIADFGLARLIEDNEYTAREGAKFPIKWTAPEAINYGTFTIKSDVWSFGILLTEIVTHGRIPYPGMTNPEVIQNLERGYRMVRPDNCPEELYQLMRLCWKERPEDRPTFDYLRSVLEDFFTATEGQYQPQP

SMILES | IC50 [µM]
Oc1cccc(/C=C/c2cccc(O)c2)c1 | 234
C(=C\c1cc(OCc2ccccc2)cc(OCc2ccccc2)c1)/c1ccc(OCc2ccccc2)cc1 | > 2030
C(=C\c1ccc(OCc2ccccc2)c(OCc2ccccc2)c1)/c1ccc(OCc2ccccc2)cc1 | > 2030
C(=C\c1cc(OCc2ccccc2)cc(OCc2ccccc2)c1)/c1cccc(OCc2ccccc2)c1 | > 2030
C(=C\c1cc(OCc2ccccc2)cc(OCc2ccccc2)c1)/c1ccccc1 | > 2030
Oc1cc(O)cc(CCc2cc(O)cc(O)c2)c1 | 487
C(=C\c1ccc(OCc2ccccc2)c(OCc2ccccc2)c1)/c1ccccc1 | > 2030
Oc1cc(O)cc(/C=C/c2cc(O)cc(O)c2)c1 | 16
Oc1cccc(/C=C/c2ccc(O)c(O)c2)c1 | 58
C(=C\c1ccc(OCc2ccccc2)c(OCc2ccccc2)c1)/c1cccc(OCc2ccccc2)c1 | > 2030
Oc1ccc(/C=C/c2ccc(O)c(O)c2)cc1 | 19
Oc1cc(O)cc(CCc2ccc(O)c(O)c2)c1 | 1560
Oc1ccc(/C=C/c2ccc(O)c(O)c2)cc1O | 74
Oc1cccc(/C=C/c2cc(O)cc(O)c2)c1 | 17
Oc1ccc(/C=C/c2ccccc2)cc1O [(E)-3,4-STILBENDIOL] | 203
Oc1cc(O)cc(/C=C/c2ccccc2)c1 [PINOSYLVIN] | 193
Oc1ccc(/C=C/c2cc(O)cc(O)c2)cc1 [RESVERATROL] | 112
